Values quoted from earlier work as cited in US9597322B2, “Otamixaban for use in the treatment of non-ST elevation acute coronary syndrome in patients planned to undergo coronary artery bypass grafting” (SANOFI, priority 2012, dated 2017).
Where two headings read alike, the source gives them in different places.

What was measured:
[1] = system: prothrombin fragments 1+2; settings: highest dose regimen; Cohen et al. 2007; cited from earlier work
free factor Xa = free factor Xa (Homo sapiens, UniProt P00742); settings: direct, independent of antithrombin III; cited from earlier work
thrombosis [2] = settings: porcine; cited from earlier work
thrombosis [3] = settings: rodent; cited from earlier work
[4] = molecular target: factor Xa assembled in the prothrombinase complex (Factor Xa, Factor Va, calcium and phospholipid) (Homo sapiens, UniProt P00742); settings: direct, independent of antithrombin III; cited from earlier work
thrombosis [5] = settings: canine; cited from earlier work
factor Xa = molecular target: T1, factor Xa (Homo sapiens, UniProt P00742); settings: patients with stable coronary artery disease on usual comedication, some with mild renal impairment; Hinder et al. 2006; cited from earlier work
T1 construct: host or cells: blood of patients (endogenous)
T1 sequence (P00742 235-488 limits assumed): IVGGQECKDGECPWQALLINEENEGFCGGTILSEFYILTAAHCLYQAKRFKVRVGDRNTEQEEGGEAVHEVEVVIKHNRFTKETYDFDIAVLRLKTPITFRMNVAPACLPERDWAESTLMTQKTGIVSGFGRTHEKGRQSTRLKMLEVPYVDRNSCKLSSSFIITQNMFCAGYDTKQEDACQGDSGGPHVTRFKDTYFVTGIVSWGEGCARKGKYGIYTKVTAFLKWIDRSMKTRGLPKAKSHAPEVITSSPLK
T1 sequence (P00742 41-179 partner limits assumed): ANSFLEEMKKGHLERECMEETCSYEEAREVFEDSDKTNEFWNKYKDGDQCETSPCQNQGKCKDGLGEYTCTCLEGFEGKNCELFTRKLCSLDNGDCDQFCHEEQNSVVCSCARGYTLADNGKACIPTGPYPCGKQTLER

Sequence of free factor Xa (P00742 235-488 limits assumed): as the sequence (P00742 235-488 limits assumed) above
Sequence of free factor Xa (P00742 41-179 partner limits assumed): as the sequence (P00742 41-179 partner limits assumed) above
Sequence of factor Xa assembled in the prothrombinase complex (Factor Xa, Factor Va, calcium and phospholipid) (P00742 235-488 limits assumed): as the sequence (P00742 235-488 limits assumed) above
Sequence of factor Xa assembled in the prothrombinase complex (Factor Xa, Factor Va, calcium and phospholipid) (P00742 41-179 partner limits assumed): as the sequence (P00742 41-179 partner limits assumed) above
Sequence of factor Xa assembled in the prothrombinase complex (Factor Xa, Factor Va, calcium and phospholipid) (P12259 29-737 partner limits assumed): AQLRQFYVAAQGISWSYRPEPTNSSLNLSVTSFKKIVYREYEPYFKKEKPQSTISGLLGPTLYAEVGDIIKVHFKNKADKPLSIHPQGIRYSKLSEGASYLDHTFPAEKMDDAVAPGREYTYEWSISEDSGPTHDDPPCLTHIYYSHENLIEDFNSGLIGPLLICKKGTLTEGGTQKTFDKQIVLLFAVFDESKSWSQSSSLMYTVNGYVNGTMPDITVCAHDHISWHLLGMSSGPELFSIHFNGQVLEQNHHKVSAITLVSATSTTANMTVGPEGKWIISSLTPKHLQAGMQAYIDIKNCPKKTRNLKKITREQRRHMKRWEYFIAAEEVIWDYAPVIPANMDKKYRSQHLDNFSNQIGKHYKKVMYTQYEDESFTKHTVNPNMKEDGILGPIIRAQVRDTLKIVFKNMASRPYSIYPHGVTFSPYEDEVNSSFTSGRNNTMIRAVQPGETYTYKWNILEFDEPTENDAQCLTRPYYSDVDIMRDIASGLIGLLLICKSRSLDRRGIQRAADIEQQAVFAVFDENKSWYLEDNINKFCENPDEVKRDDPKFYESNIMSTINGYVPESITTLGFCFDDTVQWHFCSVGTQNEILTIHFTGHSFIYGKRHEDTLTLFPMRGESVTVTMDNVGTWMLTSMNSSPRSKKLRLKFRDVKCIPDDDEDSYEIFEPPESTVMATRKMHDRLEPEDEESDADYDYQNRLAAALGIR
Sequence of factor Xa assembled in the prothrombinase complex (Factor Xa, Factor Va, calcium and phospholipid) (P12259 1574-2224 partner limits assumed): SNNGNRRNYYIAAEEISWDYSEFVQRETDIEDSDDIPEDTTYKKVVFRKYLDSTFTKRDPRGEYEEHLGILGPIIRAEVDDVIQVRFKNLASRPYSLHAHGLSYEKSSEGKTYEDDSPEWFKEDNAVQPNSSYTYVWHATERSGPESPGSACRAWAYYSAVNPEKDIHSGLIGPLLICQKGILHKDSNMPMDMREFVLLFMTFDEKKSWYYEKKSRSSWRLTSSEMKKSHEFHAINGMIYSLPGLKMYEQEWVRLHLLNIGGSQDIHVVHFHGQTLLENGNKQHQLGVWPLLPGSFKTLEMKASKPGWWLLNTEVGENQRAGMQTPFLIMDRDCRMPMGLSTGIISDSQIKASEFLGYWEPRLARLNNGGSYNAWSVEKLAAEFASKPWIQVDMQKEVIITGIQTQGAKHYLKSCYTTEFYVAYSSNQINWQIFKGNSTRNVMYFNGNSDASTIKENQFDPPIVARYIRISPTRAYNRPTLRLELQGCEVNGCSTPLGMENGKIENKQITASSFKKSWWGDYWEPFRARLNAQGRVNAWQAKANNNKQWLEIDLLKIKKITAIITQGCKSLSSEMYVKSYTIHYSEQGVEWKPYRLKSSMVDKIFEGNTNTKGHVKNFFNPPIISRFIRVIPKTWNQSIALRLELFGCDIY

## COC(=O)C(Cc1cccc(C(=N)N)c1)[C@@H](C)NC(=O)c1ccc(-c2cc[n+]([O-])cc2)cc1 (mixture of isomers) [Otamixaban, (2R,3R)-2-(3-Carbamimidoyl-benzyl)-3-[4-(1-oxy-pyridin-4-yl)benzoylamino]-butyric acid methyl ester]
[1]
  reduction of prothrombin fragments 1+2 versus unfractionated heparin: significantly more than unfractionated heparin
Free factor Xa
  inhibition of free factor Xa: inhibited
Thrombosis [2]
  efficacy in model of thrombosis: highly efficacious
Thrombosis [3]
  efficacy in model of thrombosis: highly efficacious
[4]
  inhibition of factor Xa assembled in the prothrombinase complex: inhibited
Thrombosis [5]
  efficacy in model of thrombosis: highly efficacious
Factor Xa
  factor Xa inhibition in patients: dose-dependent, rapid direct factor Xa inhibition
